The values below come from EP0290169A2, “Diamineplatinum complexes with phosphonocarboxylate and substituted phosphonocarboxylate ligands as antitumor agents” (ENGELHARD CORPORATION, priority 1987, dated 1988).

The assay deals with Sarcoma 180 ascites. Briefly: S180a screening (Sarcoma 180 ascites tumor model), increase in life span. It counts as in vivo, CFW mice. Conditions: for Surv.: survivors on day of evaluation. The procedure: CFW mice, averaging 20 g, are innoculated on day zero with 0.2 mL of a freshly prepared saline suspension (0.15 M NaCI) containing 1 × 10^7 tumor cells/mL, or a total of 2 x 10^6 cells. On day I, the mice are injected with the test compound in the selected medium (usually water). Six mice are used per test dose, with six doses normally being run.
Also, on day one, two types of controls (6 mice/set are employed: (1) Normal (1 set): 0.5 mL of the solvent medium used for the test compound, and (2) Positive control (1 set): cis-[Pt(NH3)2Cl2] in saline at 8 mg/kg.
The effectiveness of a compound is measured in terms of the increase in life span (ILS) of the test animals relative to the controls calculated from the day of tumor inoculation (day zero). The day of evaluation is arbitrarily taken as that day corresponding to twice the mean life-span of the normal controls. This sets a practical upper limit of 100% on the ILS attainable. For calculation purposes, survivors on the day of evaluation are considered to have died on that day. The % ILS is formulated as: [formula]
ILS values above 50% represent activity. The positive controls must have an ILS of ≧ 50% for the test to be valid.

Setting [1] is: dose 20.00 mg/kg on day 1, vehicle water.
The mark [2] stands for this setting: dose 40.00 mg/kg on day 1, vehicle water.
Setting [3] is: dose 80.00 mg/kg on day 1, vehicle water.
The mark [4] stands for this setting: dose 160.00 mg/kg on day 1, vehicle water.
Where [5] appears, read: dose 10.00 mg/kg on day 1, vehicle water.
Where [6] appears, read: dose 320.00 mg/kg on day 1, vehicle water.
Setting [7] is: dose 5.00 mg/kg on day 1, vehicle water, pH7.
The mark [8] stands for this setting: dose 10.00 mg/kg on day 1, vehicle water, pH7.
[9] abbreviates: dose 20.00 mg/kg on day 1, vehicle water, pH7.
[10] abbreviates: dose 40.00 mg/kg on day 1, vehicle water, pH7.
[11] abbreviates: dose 80.00 mg/kg on day 1, vehicle water, pH7.
Where [12] appears, read: dose 160.00 mg/kg on day 1, vehicle water, pH7.

Each structure is given as a SMILES string.

Regarding `CC(N)CN.CC1C(=O)[O][Pt][O]P1(=O)[O-].[Na+]` (mixture of isomers) [Ex 12, Na[Pt(pn)(2-phosphonopropionate)]], the “%ILS” value runs as follows: under setting [1], 20%; under setting [2], 24%; under setting [3], 40%; under setting [4], 53%. The Surv. under setting [1] was 0/ 6, the Surv. under setting [2] is recorded as 0/ 6, the Surv. under setting [3] is recorded as 0/ 6 and the Surv. under setting [4] is given as 1/ 6.

For `N.N.O=C1[O][Pt][O]P(=O)([O-])C1c1ccccc1.[Na+]` (racemic) [Ex 7, Na[cis-Pt(NHs)2(2-phosphonophenylacetate)]], the “%ILS” value runs as follows: under setting [1], 14%; under setting [2], 26%; under setting [3], 71%; under setting [4], 28%. The Surv. runs as follows: under setting [1], 0/ 6; under setting [2], 0/ 6; under setting [3], 2/ 6; under setting [4], 0/ 6.

For `CC1C(=O)[O][Pt][O]P1(=O)[O-].N.N.[Na+]` (racemic) [Ex 15, Na[cis-Pt(NH3)2(2-phosphonopropionate)]], the “%ILS” value is, setting by setting: under setting [5], 16%; under setting [1], 1%; under setting [2], -7%; under setting [3], -80%; under setting [4], -80%. Moreover, the Surv. was 1/ 6 under setting [5]; 0/ 6 under setting [1]; 0/ 6 under setting [2]; 0/ 6 under setting [3]; 0/ 6 under setting [4].

On to `CCCC1C(=O)[O][Pt][O]P1(=O)[O-].N.N.[Na+]` (racemic) [Ex 19, Na[cis-Pt(NH3)2(2-phosphonovalerate)]], for which the “%ILS” value reads like this: under setting [1], -74%; under setting [2], -85%; under setting [3], -95%; under setting [4], -95%. For the same molecule, the Surv. under setting [1] was 0/ 6, the Surv. under setting [2] was 0/ 6, the Surv. under setting [3] was 0/ 6 and the Surv. under setting [4] was 0/ 6.

Consider `CC(C)N.CC(C)N.O=C1CP(=O)([O-])[O][Pt][O]1.[Na+]` [Ex 9, Na[cis-Pt(i-PrNH2)2(phosphonoacetate)]], for which the “%ILS” value is given as 1% under setting [1]; -2% under setting [2]; -4% under setting [3]; 15% under setting [4]; 17% under setting [6]. The Surv. was 0/ 6 under setting [1]; 0/ 6 under setting [2]; 0/ 6 under setting [3]; 0/ 6 under setting [4]; 0/ 6 under setting [6].

As to `NCCN.O=C1[O][Pt][O]P1(=O)O` [Ex 13, H[Pt(en)(phosphonoformate)]], the “%ILS” value is reported as 9% under setting [7]; 31% under setting [8]; 63% under setting [9]; 93% under setting [10]; 58% under setting [11]; -74% under setting [12]. Besides, the Surv. under setting [7] is listed as 0/ 6; the Surv. under setting [8] was 1/ 6; the Surv. under setting [9] is 1/ 6; the Surv. under setting [10] is listed as 5/ 6; the Surv. under setting [11] is recorded as 2/ 6; the Surv. under setting [12] is recorded as 0/ 6.
